Holding throughout (assay): NCI-60 one-dose screening
Assay type in all cases: cell-based

One assay relates to 786-0. The note with it: Homo sapiens, 786-0, Renal Cancer, read-out: GI (%).
For another assay, the system named is A549/ATCC. The note with it: Homo sapiens, Non-Small Cell Lung Cancer, read-out: GI (%).
The test system of a further assay is ACHN. The note with it: Homo sapiens, Renal Cancer, read-out: GI (%).
For the next assay, the system named is DU-145. The note with it: Homo sapiens, DU-145, Prostate Cancer, read-out: GI (%).
A further assay deals with HCT-15. The note with it: Homo sapiens, HCT-15, Colon Cancer, read-out: GI (%).
The next assay relates to HT29. The note with it: Homo sapiens, HT-29, HT29, Colon Cancer, read-out: GI (%).
The next assay relates to IGROV1. The note with it: Homo sapiens, IGROV-1, IGROV1, Ovarian Cancer, read-out: GI (%).
The subject of the next assay is LOX IMVI. The note with it: Homo sapiens, Melanoma, read-out: GI (%).
Another assay has as its system MDA-MB-435. The note with it: Homo sapiens, MDA-MB-435, Melanoma, read-out: GI (%).
For the next assay, the system named is MOLT-4. The note with it: Homo sapiens, MOLT-4, Leukemias, read-out: GI (%).
The test system of the next assay is NCI-H23. The note with it: Homo sapiens, NCI-H23, Non-Small Cell Lung Cancer, read-out: GI (%).
In the next assay the test system is NCI/ADR-RES. The note with it: Homo sapiens, Ovarian Cancer, read-out: GI (%).
The test system of a further assay is OVCAR-4. The note with it: Homo sapiens, OVCAR-4, 10 μM; OVCAR-4, Ovarian Cancer; read-out: GI (%).
The next assay deals with RPMI-8226. The note with it: Homo sapiens, RPMI-8226, Leukemias, read-out: GI (%).
Another assay concerns SF-268. The note with it: Homo sapiens, SF-268, CNS Cancer, read-out: GI (%).
The test system of a further assay is SF-539. The note with it: Homo sapiens, SF-539, CNS Cancer, read-out: GI (%).
The next assay deals with SK-MEL-28. The note with it: Homo sapiens, SK-MEL-28, Melanoma, read-out: GI (%).
The next assay relates to SK-OV-3. The note with it: Homo sapiens, SK-OV-3, Ovarian Cancer, read-out: GI (%).
In another assay the test system is T-47D. The note with it: Homo sapiens, T47D, Breast Cancer, read-out: GI (%).
A further assay deals with UACC-62. The note with it: Homo sapiens, UACC-62, Melanoma, read-out: GI (%).
The next assay relates to UO-31. The note with it: Homo sapiens, UO-31, Renal Cancer, read-out: GI (%).
The test system of a further assay is CAKI-1. The note with it: Homo sapiens, CAKI-1, Renal Cancer, read-out: GI (%).
The next assay relates to M14. The note with it: Homo sapiens, M14, Melanoma, read-out: GI (%).
The next assay has as its system RXF 393. The note with it: Homo sapiens, RXF 393, Renal Cancer, read-out: GI (%).

Consider `COc1cc(/C=C2/C(=O)Nc3ccccc32)ccc1OCc1ccc(F)cc1` [6c], for which the inhibition at 10 µM in the assay on 786-0 is -6.73%; with A549/ATCC, -7.83%; in the assay with ACHN it was -2.09%; in the assay with DU-145 it was -6.42%; with HCT-15 it was -1.14%; with HT29, -4.59%. Moreover, the inhibition at 10 µM in the assay with IGROV1 was -1.33%; with LOX IMVI, 2.75%; with MDA-MB-435, -3.45%; in the assay with MOLT-4, 3.23%; in the assay on NCI-H23, 1.03%; in the assay on NCI/ADR-RES, -2.39%. For the same molecule, the inhibition at 10 µM is -2.67% in the assay on OVCAR-4; -6.91% with RPMI-8226; -5.39% with SF-268; -2.09% in the assay with SF-539; -10.2% with SK-MEL-28; -14.1% in the assay on SK-OV-3. Also, the results for the inhibition at 10 µM in the assay on T-47D, in the assay with UACC-62 and in the assay on UO-31 were -6.65%, 7.29% and 15.3%, respectively.
With `COc1cc(C=C2C(=O)Nc3ccc(Cl)cc32)ccc1O` (mixture of isomers) [5b], the inhibition at 10 µM in the assay with 786-0 worked out at 0.79%; in the assay with A549/ATCC, 3.56%; with ACHN, 26%; with CAKI-1, 41%; in the assay on DU-145 it was 33.1%; in the assay with HCT-15, 25.2%. The inhibition at 10 µM is -0.33% with HT29; 16.2% in the assay with IGROV1; 22.5% with LOX IMVI; 18.4% in the assay on M14; 19.4% in the assay with MDA-MB-435; 23.1% in the assay on MOLT-4. The inhibition at 10 µM in the assay on NCI-H23 is 15.6%; with NCI/ADR-RES, 9.66%; in the assay on OVCAR-4 it was 18.8%; in the assay on RPMI-8226, 23.6%; with RXF 393, -7.81%; in the assay with SF-268, 29.1%. Further, the inhibition at 10 µM is 46.4% with SF-539; 5.35% in the assay with SK-MEL-28; -6.08% with SK-OV-3; 40.9% in the assay on T-47D; 87.1% with UACC-62; 45% in the assay on UO-31.
As for `COc1cc(C=C2C(=O)Nc3ccccc32)ccc1OCc1ccccc1` (mixture of isomers) [6a], the inhibition at 10 µM in the assay with 786-0 was -0.73%; with A549/ATCC, -9.96%; in the assay with ACHN, 6.95%; with DU-145, 0.43%; in the assay with HCT-15, 12.2%; in the assay on HT29, -2.25%. The inhibition at 10 µM is 5.2% with IGROV1; 7.61% with LOX IMVI; -3.92% with MDA-MB-435; 1.73% with MOLT-4; -2.84% with NCI-H23; 1.52% with NCI/ADR-RES. Also, the inhibition at 10 µM with OVCAR-4 was 3.22%; in the assay with RPMI-8226, 1%; with SF-268 it was -1%; with SF-539, 0.76%; in the assay on SK-MEL-28, -5.94%; in the assay with SK-OV-3 it was -10.3%. Further, the inhibition at 10 µM in the assay on T-47D was -13%; with UACC-62, 7.55%; in the assay on UO-31 it was 25.3%.
For `COc1ccc(COc2ccc(/C=C3/C(=O)Nc4ccccc43)cc2OC)cc1` [6d], the inhibition at 10 µM with 786-0 is -4.67%; in the assay with A549/ATCC, -9.19%; in the assay on ACHN it was 7.61%; in the assay with DU-145 it was -8.53%; in the assay on HCT-15, -4.57%; in the assay with HT29 it was -7.81%. Further, the inhibition at 10 µM in the assay on IGROV1 was -7.35%; with LOX IMVI, 3.43%; in the assay on MDA-MB-435, -6.21%; in the assay on MOLT-4, -1.85%; in the assay with NCI-H23, -2.85%; in the assay with NCI/ADR-RES it was -6.16%. Moreover, the inhibition at 10 µM is 0.17% with OVCAR-4; -4.4% in the assay on RPMI-8226; -3% in the assay on SF-268; 4.08% in the assay on SF-539; -6.58% in the assay with SK-MEL-28; -19.1% with SK-OV-3. The inhibition at 10 µM in the assay on T-47D is -12.8%; in the assay with UACC-62 it was 3.29%; with UO-31, 19.6%.
`COc1cc(/C=C2/C(=O)Nc3cc(Cl)ccc32)ccc1OCc1ccccn1` [6o]: the inhibition at 10 µM was -11.2% with 786-0; -15.6% with A549/ATCC; 5.07% with ACHN; -7.21% with DU-145; 7.58% in the assay with HCT-15; -15.4% in the assay with HT29. Also, the inhibition at 10 µM in the assay on IGROV1 is 25.2%; in the assay on LOX IMVI it was 2.38%; in the assay with MDA-MB-435, -6.9%; with MOLT-4, 3.45%; in the assay on NCI-H23, 4.55%; in the assay with NCI/ADR-RES, -7.14%. For the same molecule, the inhibition at 10 µM in the assay on OVCAR-4 is 3.45%; in the assay on RPMI-8226 it was -0.91%; with SF-268, -6.37%; in the assay on SF-539, 4.76%; in the assay with SK-MEL-28 it was -7.43%; in the assay on SK-OV-3, -7.09%. The inhibition at 10 µM with T-47D turned out to be 0.18%; in the assay with UACC-62, 6.45%; with UO-31, 16.6%.
Take `COc1cc(/C=C2/C(=O)Nc3cc(Cl)ccc32)ccc1OCc1ccc(F)cc1` [6m]: the inhibition at 10 µM was -7.88% in the assay with 786-0; -9.5% in the assay with A549/ATCC; 6.43% in the assay with ACHN; -4.25% in the assay with DU-145; 10.9% in the assay on HCT-15; -5.1% with HT29. The inhibition at 10 µM with IGROV1 is 27.3%; in the assay on LOX IMVI, 6.49%; with MDA-MB-435, -3.13%; in the assay with MOLT-4 it was -0.43%; in the assay with NCI-H23 it was -0.55%; with NCI/ADR-RES, -0.91%. The inhibition at 10 µM is 16.8% in the assay on OVCAR-4; -13.2% in the assay with RPMI-8226; -0.8% with SF-268; 4.99% in the assay on SF-539; -5.13% in the assay with SK-MEL-28; 2.75% with SK-OV-3. Further, the inhibition at 10 µM with T-47D turned out to be 5.94%; with UACC-62 it was 11.2%; in the assay with UO-31, 20.2%.
In the case of `COc1cc(/C=C2/C(=O)Nc3ccccc32)ccc1OCc1ccc(Cl)cc1` [6b], the inhibition at 10 µM in the assay with 786-0 is -6.18%; in the assay with A549/ATCC, -7.18%; in the assay on ACHN it was 7.31%; in the assay on DU-145 it was 1.33%; in the assay with HCT-15, 6.05%; with HT29, -8.68%. Moreover, the inhibition at 10 µM in the assay on IGROV1 is -2.14%; in the assay on LOX IMVI it was 0.22%; with MDA-MB-435, -6.4%; with MOLT-4, 6.07%; with NCI-H23 it was 6.66%; in the assay with NCI/ADR-RES, -0.22%. The inhibition at 10 µM is 0.89% with OVCAR-4; 2.49% with RPMI-8226; 1.43% with SF-268; 1.99% with SF-539; 7.06% in the assay with SK-MEL-28; -10.5% with SK-OV-3. Also, the inhibition at 10 µM in the assay on T-47D was -6.94%; in the assay on UACC-62 it was 12.4%; in the assay on UO-31 it was 18.7%.
